Data: article PMC9867837 (Cancer letters, 2022)

Legend:
[1] = target: T1, purified recombinant Stat3 (rStat3) (Homo sapiens, UniProt P40763); assay: Isothermal titration calorimetry (ITC); assay type: binding
T1 construct: made in house; host or cells: E. coli BL21(DE3)
Method: The ITC experiment was carried out as previously described. Details are provided in Supplementary Information, “Methods”. […]
1.2.10. Isothermal titration calorimetry (ITC)
The ITC experiment was carried out as previously described with some modification using Malvern Panalytical MicroCal PEAQ-ITC (United Kingdom). Studies were done at 25 °C. Briefly, H182, previously suspended in 100 % DMSO were diluted in 20 mM HEPES, 150 mM KCl buffer so the final DMSO was 5 %. To avoid buffer mismatch, Stat3 in HEPES buffer was diluted in HEPES buffer with 5% DMSO final concentration. Three hundred microliter (300 μL) aliquots of 3.0 μM Stat3 w ere placed in the cell and titrated with 250 μM H182. Titrations took place by injecting 2 μL H182 in a 2.5 min injection for the titration peak to return to the baseline. The K D was calculated using the MicroCal PEAQ-ITC analysis […]
software and Prism GraphPad software (San Diego, CA), using the one-site model. Control experiments were carried out by titration H182 into buffer, buffer into Stat3, and buffer into buffer. […]
DMSO (control) was added, and then immediately, cells were imaged with a Canon Powershot A640 digital camera under a phase contrast with the Zeiss Axiovert 200 inverted microscope at 10X magnification and noted as the zero time-point. Following culture for 22 h to allow cells to migrate into the denuded area, the culture was then imaged again at the same field that was marked on the plate.
1.2.12. Annexin V binding/apoptosis and flow cytometric analysis
For apoptosis analysis, annexin V/propidium iodide (PI) staining was performed. Briefly, cells in culture and untreated (DMSO, control) or treated with H182 were harvested and stained with FITC -annexin V (Apoptosis Detection Kit), according to manufacturer’s instructions (BD Biosciences, San Jose, CA). […]
1.2.13. Assessment of Physicochemical Properties
Solubility, human (HLM) and mouse liver microsomal (MLM), and plasma stability studies were performed by Eurofins Cerep Panlabs and Eurofin Discovery Services (www.eurofins.com/PharmaDiscovery), while

[2] = test system: MDA-MB-231 tumor xenografts; assay: Subcutaneous MDA-MB-231 xenografts in athymic nude mice; assay type: in vivo
Method: Mice were housed in specific pathogen-free conditions in the animal facility. All animal experiments were conducted in accordance with the recommendations in the Guide for the Care and Use of Laboratory Animals on a protocol approved by the Institutional Animal Care and Use Committee (IACUC). Subcutaneous xenograft studies were performed as previously reported. Five-week-old female athymic nude mice were purchased from Envigo (Indianapolis, IN) or Charles River (Wilmington, MA) and maintained in the institutional animal facilities approved by the American Association for Accreditation of Laboratory Animal Care. […] Tumor sizes were monitored every 3–4 days, measured with calipers, and converted to tumor volume, V, according to the formula V = 0.52 × a^2 × b, where a, smallest superficial diameter, and b, largest superficial diameter. For each treatment group, the tumor volumes for each set of measurements were statistically analyzed relative to the control (DMSO-treated; 70% DMSO with sterile PBS) group.
Constitutively-active Stat3 promotes primary tumor development and the progression to therapy resistance. We proceeded to evaluate the in vivo antitumor efficacy against tumor growth in both human xenograft and mouse syngeneic models of TNBC. In four separate studies, we tested the efficacy of H182, H278 (HCl salt of H182), and H120. For these xenografts, the human breast cancer, MDA-MB-231 cells were injected subcutaneously into athymic nude mice. When tumors were palpable (80–120 mm^3), mice were grouped so that the mean tumor sizes were identical between groups and treated as follows: A) intraperitoneal (IP) injections of H182 at 10 mg/kg every other day for 33 days; B) oral gavage of H182 every day at 5 mg/kg for 20 days, and then increased to 20 mg/kg for additional 12 days; and C) oral gavage of H120 at 20 mg/kg, daily for 14 days, and then increased to 30 mg/kg, daily for additional 14 days.

[3] = test system: c-Myc, survivin and vascular endothelial growth factor (VEGF); assay: Immunoblotting for Stat3 downstream genes in cells; assay type: cell-based, human; conditions: MDA-MB-231, doses that inhibit Stat3 activity
Method: These studies were performed as previously described. Details are presented in Supplementary Information, “Methods”.
Aberrantly-active Stat3 promotes tumor cell growth and proliferation, survival, migration, invasion, and metastasis.
These studies were performed as previously described [1 -3] . Briefly, snap-frozen tumor tissues or cultured cells treated or not were harvested and whole-cell or tissue lysates were prepared in radioimmunoprecipitation assay (RIPA) buffer. Samples of equal total protein were subjected to SDS - PAGE and immunoblotting analysis. Primary antibodies used were anti- Stat3, pY705-Stat3, pS727Stat3, […]
Akt, pT202/Y204Erk1/2 (p44/42), Erk1/2, PARP , caspase 3, c-Myc, survivin, VEGF, β-actin, α/β-tubulin, and GAPDH. For the studies of the effects of cell density and confluence on pY705Stat3, cells were seeded […] in culture dishes. The next day, cells were untreated (DMSO control, […]
0.1%) or treated at the same time with 1 or 2 µM H182, allowed to incubate for the indicated time and then harvested for whole-cell lysate preparation and SDS -PAGE / immunoblotting analy sis. […]
concentration of H182 for 6 h and then treated with 0- 100 nM docetaxel or 0-20 µM cisplatin for a total of 72 h. Viable cell numbers were assessed by a CyQuant cell proliferation kit according to the manufacturer’s instructions (Thermo/Life Technologies Corp, Carlsbad, CA). […]

T1 sequence (P40763 127-711): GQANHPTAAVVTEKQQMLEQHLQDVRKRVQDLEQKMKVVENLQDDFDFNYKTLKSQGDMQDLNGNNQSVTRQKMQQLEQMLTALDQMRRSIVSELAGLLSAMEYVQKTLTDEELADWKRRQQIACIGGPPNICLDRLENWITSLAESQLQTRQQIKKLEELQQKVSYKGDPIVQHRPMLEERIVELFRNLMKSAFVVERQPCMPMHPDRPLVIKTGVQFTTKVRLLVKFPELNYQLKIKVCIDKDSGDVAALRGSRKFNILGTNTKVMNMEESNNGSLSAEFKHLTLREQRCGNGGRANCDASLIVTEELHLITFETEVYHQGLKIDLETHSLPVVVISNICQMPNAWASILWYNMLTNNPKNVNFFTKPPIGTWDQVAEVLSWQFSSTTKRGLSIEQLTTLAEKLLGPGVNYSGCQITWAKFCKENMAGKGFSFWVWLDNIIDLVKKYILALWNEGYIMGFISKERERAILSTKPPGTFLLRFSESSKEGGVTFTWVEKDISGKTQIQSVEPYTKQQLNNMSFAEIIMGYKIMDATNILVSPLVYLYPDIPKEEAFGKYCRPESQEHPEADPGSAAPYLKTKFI

With O=C([C@H]1CCN1S(=O)(=O)c1c(F)c(F)c(F)c(F)c1F)N(Cc1ccc(C2CCCCC2)cn1)c1ccc2c(=O)[nH]ncc2c1 [Compound H182] the ΔG [1] was -32.6 kJ/mol, the ΔH [1] was -17.4 kJ/mol and the “−TΔS” value [1] was -15.2 kJ/mol. The Kd ([1]; one-site model, 25 °C) was 1.97 µM, the “Tumor growth, MDA-MB-231 xenografts” value ([2]; H182 IP 10 mg/kg every other day for 33 days) was “significant tumor growth inhibition” and the “Tumor growth, MDA-MB-231 xenografts” value ([2]; H182 oral gavage daily 5 mg/kg for 20 days, then 20 mg/kg for 12 days) was “significant tumor growth inhibition”. For the same molecule, the “Body weights and obvious signs of toxicity” value ([2]; the three xenograft studies) was “No notable changes” and the “Expression of c-Myc, survivin and VEGF in cells” value [3] was “rapidly suppressed”.
